The values below come from patent US20080039532A1, “Compounds For Specific Viral Target” (priority 2004, published 2008).

One assay deals with HIV-1 Strain IIIB. As to the kind of experiment: Determination of IC-50 of antiviral drugs by reverse transcriptase assay in PHA-stimulated CBMC. Format: cell-based. To be noted: for RT Results (cpm) (Day 7): +drugs 7 days, replicate columns; for anti-HIV activity (inhibition of reverse-transcriptase activity of HIV-1) as compared to native C34: standard in vitro assay. As for the experimental part:
Determination of IC-50 for Assessing the Activity of Antiviral Drugs Using HIV-1 Strain IIIB
The assay is performed in a 96-well plate with 500,000 PHA-stimulated CBMC (cord blood mononuclear cells) per well, 2 wells per drug concentration, with a minimum of 6 concentrations per drug. Media used is RPMI 1640 with 10% FBS, penicilin (100 U/ml), streptomycine (100 μg/ml), glutamine (2 mM), hydrocortisone (5 μg/ml), and IL-2 (20 U/ml).
Control drug stocks are prepared by adding 2 ml of buffer to the native compounds or the reactive compounds. The stocks are stored at −20 degrees Celsius. The drug concentrations were determined by ConjuChem Inc. [drawing 76] Addition of the Compound Prior to Cell Infection
Target cells are incubated with different compounds concentrations for 30-60 minutes at 37 degrees Celsius prior to addition of virus (multiplicity of infection (MOI)=0.1-1.0). Following plating, target cells are in the continuous presence of the different concentrations of inhibitor for a total of 7 days.
Following 3-4 days of incubation, each compound is replenished.
Reverse transcriptase assay is used to measure the IC50.
CC50 (cytotoxic concentration) is also evaluated for all compounds.
3TC is used as a control inhibitor

For assay [1], the target named is N36 peptide (CJC-1592) derived from the N-heptad repeat of HIV-1's gp41 glycoprotein (Human immunodeficiency virus type 1 group M subtype B, UniProt P04578). To be noted: 1 hour incubation at room temperature; 17.5% acrylamide; compared to native C34. As to the method: Following the 1 hour incubation at room temperature, at least 20 micrograms of total N36/C34 peptide mixture were loaded into each well and separated using Native-polyacrylamide gel electrophoresis (17.5% acrylamide) and stained using Coomassie Brilliant Blue. Unlike SDS-PAGE, Native-PAGE allows one to visualize the formation of six-helix bundles at approximately 28 kDa composed of three central N36 peptides surrounded by three C34 peptides. The formation of this structure and its analogs among other viruses is critical to the subsequent membrane fusion events.

Where “and” joins values, the source holds several entries; their conditions need not be identical. Equal values may be shown once. Ends that are not written are not given here. linker‑R1‑R2‑M = not defined here

On to “SEQ ID NO: 93: native (unreactive, non-covalent) version of C34 (Ac-WMEWDREINNYTSLIHSLIEESQNQQERNEQELL) [reference compound]”, for which the “RT Results (cpm) (Day 7)” value in the assay with HIV-1 Strain IIIB (Conc 125 nm) was 5854 cpm and 5040 cpm and 5219 cpm; in the assay on HIV-1 Strain IIIB (Conc 600 nm) it was 4924 cpm and 5850 cpm and 5093 cpm; with HIV-1 Strain IIIB (Conc 3000 nm), 5811 cpm and 6955 cpm and 5973 cpm. Moreover, in the assay on HIV-1 Strain IIIB, the “anti-HIV activity (inhibition of reverse-transcriptase activity of HIV-1) as compared to native C34” value was “essentially no loss in anti-HIV activity”.
“SEQ ID NO: 32: C34 with linker-R1-R2-M inserted at position Asp5 (Ac-WMEWK(linker‑R1‑R2‑M)REINNYTSLIHSLIEESQNQQERNEQELL; not fully specified; reading uncertain)”: the “RT Results (cpm) (Day 7)” value is 6322 cpm and 6929 cpm and 5909 cpm in the assay with HIV-1 Strain IIIB (Conc 125 nm); 6477 cpm and 11889 cpm and 6030 cpm in the assay with HIV-1 Strain IIIB (Conc 600 nm); 7967 cpm and 5896 cpm and 6208 cpm with HIV-1 Strain IIIB (Conc 3000 nm). Further, the “efficiency of the binding element in binding to its viral target, compared to native C34” value in the assay on HIV-1 Strain IIIB (inferred from anti-HIV activity, N-heptad repeat of HIV-1's gp41) is listed as “as efficient in binding to its viral target as native C34”. For the same substance, the “anti-HIV activity (inhibition of reverse-transcriptase activity of HIV-1) as compared to native C34” value in the assay with HIV-1 Strain IIIB is listed as “as effectively as the native C34”. The “binding of C34 derivative to N36 peptide on Native-PAGE” value in assay [1] is listed as “does not impede C34 from binding to its target N36 peptide”.
